Consider 5 compounds from the supplement of paper PMC8671470.

± gives the standard deviation of the averaged measurements.

The test system of this assay is HL-60. In words: cell viability (% survival relative to DMSO control); higher = less cytotoxic. As to conditions: 72 h. The procedure, abridged:
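HL-60 cells in RPMI 1640 with 10% FBS were rescreened against the full library on 384-well plates at five tenfold concentrations, 1–10,000 nM, in duplicate. Each screen was run with DMSO or 100 nM of one of three metabolic inhibitors, for 72 h at 37 °C, 5% CO2. Viability was read by CellTiter-Glo and normalised to DMSO and 10 μM proteasome-inhibitor wells. Where given, area under the curve came from four-parameter log-logistic fits (drc, PharmacoGx).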

Setting [1] is: 0.001 µM, co-treatment: AZD3965 100 nM.
Where [2] appears, read: 0.001 µM, co-treatment: DMSO vehicle.
The mark [3] stands for this setting: 0.001 µM, co-treatment: GSK2194069 100 nM.
[4] abbreviates: 0.001 µM, co-treatment: pictilisib 100 nM.
[5] abbreviates: 0.01 µM, co-treatment: AZD3965 100 nM.
The mark [6] stands for this setting: 0.01 µM, co-treatment: DMSO vehicle.
Where [7] appears, read: 0.01 µM, co-treatment: GSK2194069 100 nM.
The mark [8] stands for this setting: 0.01 µM, co-treatment: pictilisib 100 nM.
The mark [9] stands for this setting: 0.1 µM, co-treatment: AZD3965 100 nM.
Where [10] appears, read: 0.1 µM, co-treatment: DMSO vehicle.
Setting [11] is: 0.1 µM, co-treatment: GSK2194069 100 nM.
Setting [12] is: 0.1 µM, co-treatment: pictilisib 100 nM.
Where [13] appears, read: 1 µM, co-treatment: AZD3965 100 nM.
The mark [14] stands for this setting: 1 µM, co-treatment: DMSO vehicle.
[15] abbreviates: 1 µM, co-treatment: GSK2194069 100 nM.
Setting [16] is: 1 µM, co-treatment: pictilisib 100 nM.
Setting [17] is: 10 µM, co-treatment: AZD3965 100 nM.
[18] abbreviates: 10 µM, co-treatment: DMSO vehicle.
The mark [19] stands for this setting: 10 µM, co-treatment: GSK2194069 100 nM.
[20] abbreviates: 10 µM, co-treatment: pictilisib 100 nM.

One may read the cell viability as a read-out of living cells in per cent, often relative to untreated cells.

Regarding `O=C(O)c1nn(Cc2ccc(Cl)cc2Cl)c2ccccc12` [Lonidamine], the cell viability runs as follows: under setting [1], 96.3 ± 3.7%; under setting [2], 97.83 ± 0.75%; under setting [3], 96.6 ± 2.2%; under setting [4], 101 ± 1.6%; under setting [5], 90.8 ± 2%; under setting [6], 105 ± 1.4%. Besides, the cell viability runs as follows: under setting [7], 97.05 ± 0.16%; under setting [8], 99.3 ± 12%; under setting [9], 100 ± 3.7%; under setting [10], 100.5 ± 0.34%; under setting [11], 98.9 ± 2.4%; under setting [12], 98.22 ± 0.36%. Besides, the cell viability is, setting by setting: under setting [13], 101 ± 1.1%; under setting [14], 101 ± 1.2%; under setting [15], 101 ± 7.9%; under setting [16], 103 ± 7.6%; under setting [17], 95.4 ± 9.7%; under setting [18], 98.4 ± 5.4%. Moreover, the cell viability amounted to 99.8 ± 5.7% under setting [19] and 94.8 ± 8.1% under setting [20].
Turning to `C1CCC(C(CC2CCCCN2)C2CCCCC2)CC1.O=C(O)/C=C\C(=O)O` (stereo not given) [Perhexiline], the cell viability is, setting by setting: under setting [1], 101 ± 3.6%; under setting [2], 108 ± 3.6%; under setting [3], 104.6 ± 0.56%; under setting [4], 90.6 ± 16%; under setting [5], 95.4 ± 6.8%; under setting [6], 102 ± 4.9%. The cell viability by setting is: under setting [7], 91.3 ± 14%; under setting [8], 98.9 ± 25%; under setting [9], 108 ± 5.2%; under setting [10], 103 ± 3.9%; under setting [11], 99 ± 9.2%; under setting [12], 112.1 ± 0.54%. The cell viability is, setting by setting: under setting [13], 99.1 ± 2.5%; under setting [14], 105 ± 2.4%; under setting [15], 86.4 ± 9.4%; under setting [16], 73.2 ± 25%; under setting [17], -0.971 ± 0.58%; under setting [18], -1.01 ± 1.6%. Also, the cell viability reads like this: under setting [19], -1.86 ± 0.47%; under setting [20], -1.67 ± 0.61%.
Take `C#Cc1cnc(O)nc1O` [Eniluracil]: the cell viability is 86 ± 17% under setting [1]; 102 ± 2% under setting [2]; 88.7 ± 30% under setting [3]; 85.5 ± 17% under setting [4]; 97.4 ± 1.8% under setting [5]; 101.6 ± 0.32% under setting [6]. For the same compound, the cell viability under setting [7] is 93.8 ± 3.5%; the cell viability under setting [8] is 100.4 ± 0.67%; the cell viability under setting [9] was 103 ± 2.1%; the cell viability under setting [10] is 101.1 ± 0.89%; the cell viability under setting [11] amounted to 100.8 ± 0.49%; the cell viability under setting [12] came out at 99.32 ± 0.24%. Besides, the cell viability came out at 103 ± 1.8% under setting [13]; 99.9 ± 4.8% under setting [14]; 95.8 ± 9.8% under setting [15]; 102 ± 6.5% under setting [16]; 102.99 ± 0.034% under setting [17]; 101 ± 4.8% under setting [18]. Also, the cell viability is, setting by setting: under setting [19], 96.7 ± 6.7%; under setting [20], 103 ± 4.7%.
Consider `COc1c(C)c2c(c(O)c1C/C=C(\C)CCC(=O)O)C(=O)OC2` [Mycophenolic acid], for which the cell viability came to 96.8 ± 3.9% under setting [1]; 72.1 ± 34% under setting [2]; 85.6 ± 16% under setting [3]; 91.1 ± 12% under setting [4]; 89.8 ± 13% under setting [5]; 96.4 ± 5.6% under setting [6]. The cell viability was 86.3 ± 18% under setting [7]; 92.87 ± 0.34% under setting [8]; 99 ± 6.1% under setting [9]; 95.9 ± 2.7% under setting [10]; 94.33 ± 0.34% under setting [11]; 99.1 ± 7.1% under setting [12]. Further, the cell viability is 113.3 ± 0.98% under setting [13]; 106.1 ± 0.96% under setting [14]; 103 ± 7.8% under setting [15]; 98.72 ± 0.17% under setting [16]; 31.9 ± 4.8% under setting [17]; 56.2 ± 3.4% under setting [18]. For the same compound, the cell viability under setting [19] was 55.8 ± 1.6% and the cell viability under setting [20] is 55.7 ± 1.7%.
With `Cc1noc2c1-c1ccccc1C(c1ccc(Cl)cc1)=N[C@H]2CC(N)=O` [CPI-0610], the cell viability runs as follows: under setting [1], 101 ± 2.2%; under setting [2], 96.3 ± 1.7%; under setting [3], 101 ± 1.7%; under setting [4], 104 ± 2.6%; under setting [5], 101 ± 1.5%; under setting [6], 95.3 ± 1.7%. Moreover, the cell viability by setting is: under setting [7], 100.1 ± 0.39%; under setting [8], 94.4 ± 1.4%; under setting [9], 92 ± 14%; under setting [10], 98.8 ± 2.3%; under setting [11], 97.5 ± 6.9%; under setting [12], 75.5 ± 14%. Also, the cell viability is, setting by setting: under setting [13], 62.6 ± 7.4%; under setting [14], 74.8 ± 9.4%; under setting [15], 71.4 ± 2.1%; under setting [16], 45.8 ± 1.4%; under setting [17], 16.8 ± 1.1%; under setting [18], 23.7 ± 2.8%. In addition, the cell viability runs as follows: under setting [19], 25.3 ± 6.1%; under setting [20], 8.68 ± 2.2%.
